{
  "source": "patent US9949979B2",
  "about": "“Use of inhibitors of the activity or function of PI3K” (NOVARTIS AG, priority 2011, dated 2018)",
  "key": {"TLR9 [1]": {"test_system": "TLR9", "assay": "TLR9-induced IL-6 in murine splenocytes (CpG1826, ELISA)", "format": "cell-based, C57BL/6 mice", "settings": "Mus musculus, Splenocyte; read-out: TLR9-ligand induced IL-6 in murine splenocytes IC50", "method": "2.2 Determination of TLR9-Induced IL-6 in Murine Splenocytes\nSpleens were dissected from C57BL/6 mice immediately following euthanasia. Excess fat was trimmed from the spleens prior to mashing the spleen through a […] cell strainer using a plunger from a 5 ml syringe. A single cell suspension was prepared and the volume was adjusted to 15 ml in a 50 ml Falcon tube using cold PBS. Cells were centrifuged at 1500 rpm for 5 minutes at 4° C. degrees prior to removal of supernatant and re-suspension in 5 ml of red blood cell lysis buffer per spleen and incubation for 5 minutes at room temperature. Ice cold PBS (30 ml) was added to the cells prior to centrifugation at 1500 rpm for 5 minutes at 4° C. The supernatant was removed and the cells were washed twice with 40 ml of murine splenocyte culture media (MSCM). […] Cells were re-suspended in 10-20 ml of MSCM and counted using a Countess cell counter. […]\nAfter overnight culture, cells were transferred to 96-well V-bottomed plates and centrifuged at 2000 rpm for 5 minutes at room temperature. Subsequently 150 μl of each culture supernatant was transferred to 96-well flat-bottomed plates and […] were measured using commercially available mouse IL-6 sandwich ELISA kit (R&D systems). […] IL-6 levels were measured using a SpectraMax 190 Plate Reader (450 nm) and analyzed using SoftMax Pro and GraphPad Prism software."}, "TLR9 [2]": {"test_system": "TLR9", "assay": "TLR9-induced IFNalpha in isolated human pDCs (CpG2216, AlphaLISA)", "format": "cell-based", "settings": "read-out: TLR9-ligand induced IFNα in human pDCs IC50", "method": "2.4 Determination of TLR9-Induced IFNalpha in Human Peripheral Blood Mononuclear Cells (PBMCs) and Isolated Plasmacytoid Dendritic Cells (pDCs)\nHuman PBMCs were prepared using Buffy Coats as source material from healthy donations (approx. 50 ml obtained from Blutspendezentrum SRK Basel) and processed as indicated above. […]\nCompounds were pre-diluted in 100% v/v DMSO (#41640-100 mL; Sigma-Aldrich), followed by transfer in Media (to achieve a final DMSO concentration of 0.25%). […] Plates were briefly centrifuged (200×g for 2 min at 22° C.) and supernatant samples (30 μl) removed for quantification of IFNα levels.\nFor quantification of IFNalpha the human interferon AlphaLISA Kit (#AL264F) from PerkinElmer was used. […] After incubation, the plates were read with an EnVision™ multiplate reader equipped with the ALPHA option using the instrument's own “AlphaScreen standard settings” (e.g. total measurement time: 550 ms, Laser 680 nm excitation time: 180 ms, mirror: D640 as, emission filter: M570w, center wavelength 570 nm, bandwidth 100 nm, transmittance 75%). Data were collected for analysis and quantification of IFNα levels.\nData were analysed using Excel XL fit 4.0 (Microsoft) with XLfit add-in (IDBS; version 4.3.2). Specific IFNα concentrations were determined following extrapolation to standard curves using human IFNα B (2b). […]"}},
  "data": [
    {"smiles": "CCC(=O)N1CC[C@H](Nc2ncnc3c2CN(c2cnc(OC)c(C(F)(F)F)c2)CC3)C1", "note": "[Example 67, 1-{(S)-3-[6-(6-Methoxy-5-trifluoromethyl-pyridin-3-yl)-5,6,7,8-tetrahydro-pyrido[4,3-d]pyrimidin-4-ylamino]-pyrrolidin-1-yl}-propan-1-one]", "values": [
      {"measurement": "IC50", "setting": "TLR9 [1]", "result": 96, "unit": "nM"},
      {"measurement": "IC50", "setting": "TLR9 [2]", "result": 33, "unit": "nM"}
    ]}
  ]
}
